Experimental data taken from ChEMBL document CHEMBL3885861, “Open TG-GATES”.

Organism: Rattus norvegicus
Assay: Open TG-GATES - Regimen: Daily Repeat
Assay type: toxicity, organism-based, Sprague-Dawley
Set-up: regimen Daily Repeat, gender Male, age 6 weeks
Settings: in vivo, po, route gavage; for APTT / Bas / Eos / Fbg / Hb / Ht / Lym / MCH / MCHC / MCV / Mono / Neu / PT / Plat / RBC / Ret / WBC: tissue Blood; for KIDNEY_L / KIDNEY_R / KIDNEY_TOTAL: tissue Kidney; for LIVER: tissue Liver; for A/G / ALP / ALT / AST / BUN / CRE / Ca / Cl / DBIL / GLC / IP / K / LDH / Na / PL / RALB / TBIL / TC / TG / TP / gamma-GTP: tissue Plasma
[1] = 300 mg/kg, 72 h, dose level Middle, time 3 day
[2] = 300 mg/kg, […], dose level Middle, time 7 day
[3] = 300 mg/kg, […], dose level Middle, time 14 day
[4] = 300 mg/kg, […], dose level Middle, time 28 day
[5] = 1000 mg/kg, 72 h, dose level High, time 3 day
[6] = 1000 mg/kg, […], dose level High, time 7 day
[7] = 1000 mg/kg, […], dose level High, time 14 day
[8] = 1000 mg/kg, […], dose level High, time 28 day

## CN(C)[C@@H]1C(O)=C(C(N)=O)C(=O)[C@@]2(O)C(O)=C3C(=O)c4c(O)cccc4[C@@](C)(O)[C@H]3C[C@@H]12 [TETRACYCLINE]
[1]
  TERMINAL_BW: 189.9 g
  APTT: 16.3 s
  Bas: 0%
  Eos: 0.6%
  Fbg: 239.2 mg/dL
  Hb: 13.6 g/dL
  Ht: 40.7%
  Lym: 87.4%
  MCH: 21.9 pg
  MCHC: 33.4%
  MCV: 65.7 fL
  Mono: 5.6%
  Neu: 6%
  PT: 12.3 s
  Plat: 99.5 x10_4/uL
  RBC: 620.2 x10_4/ul
  Ret: 5.8%
  WBC: 89.4 x10_2/uL
  KIDNEY_L: 0.9 g
  KIDNEY_R: 0.9 g
  KIDNEY_TOTAL: 1.8 g
  LIVER: 8.8 g
  A/G: 1.9
  ALP: 1035.4 IU/L
  ALT: 35.6 IU/L
  AST: 66.8 IU/L
  BUN: 16.2 mg/dL
  CRE: 0.6 mg/dL
  Ca: 10.9 mg/dL
  Cl: 107.2 meq/L
  DBIL: 0.01 mg/dL
  GLC: 180.6 mg/dL
  IP: 9.8 mg/dL
  K: 4.8 meq/L
  LDH: 122.6 IU/L
  Na: 141 meq/L
  PL: 147.2 mg/dL
  RALB: 3.8 g/dL
  TBIL: 0.3 mg/dL
  TC: 93.6 mg/dL
  TG: 42.6 mg/dL
  TP: 5.8 g/dL
  gamma-GTP: 1.6 IU/L
[2]
  TERMINAL_BW: 227.9 g
  APTT: 17.9 s
  Bas: 0%
  Eos: 1%
  Fbg: 238.5 mg/dL
  Hb: 13.9 g/dL
  Ht: 41.5%
  Lym: 85%
  MCH: 21 pg
  MCHC: 33.4%
  MCV: 62.9 fL
  Mono: 7%
  Neu: 7.2%
  PT: 12.1 s
  Plat: 102 x10_4/uL
  RBC: 660.2 x10_4/ul
  Ret: 7.2%
  WBC: 135.8 x10_2/uL
  KIDNEY_L: 1 g
  KIDNEY_R: 1 g
  KIDNEY_TOTAL: 2 g
  LIVER: 10.8 g
  A/G: 2
  ALP: 1076.4 IU/L
  ALT: 38.2 IU/L
  AST: 69 IU/L
  BUN: 20.2 mg/dL
  CRE: 0.6 mg/dL
  Ca: 11.2 mg/dL
  Cl: 106.6 meq/L
  DBIL: 0.004 mg/dL
  GLC: 176 mg/dL
  IP: 9.6 mg/dL
  K: 5.5 meq/L
  LDH: 142 IU/L
  Na: 140.4 meq/L
  PL: 157.6 mg/dL
  RALB: 3.9 g/dL
  TBIL: 0.3 mg/dL
  TC: 82.6 mg/dL
  TG: 87.6 mg/dL
  TP: 5.9 g/dL
  gamma-GTP: 1 IU/L
[3]
  TERMINAL_BW: 275.6 g
  APTT: 16.7 s
  Bas: 0%
  Eos: 0.6%
  Fbg: 224 mg/dL
  Hb: 14 g/dL
  Ht: 42.2%
  Lym: 88.8%
  MCH: 20.3 pg
  MCHC: 33.3%
  MCV: 60.8 fL
  Mono: 4.8%
  Neu: 5.8%
  PT: 11.9 s
  Plat: 101.9 x10_4/uL
  RBC: 694 x10_4/ul
  Ret: 5.3%
  WBC: 135.4 x10_2/uL
  KIDNEY_L: 1.1 g
  KIDNEY_R: 1.1 g
  KIDNEY_TOTAL: 2.2 g
  LIVER: 11.8 g
  A/G: 2
  ALP: 1009.2 IU/L
  ALT: 36.8 IU/L
  AST: 61.6 IU/L
  BUN: 20.8 mg/dL
  CRE: 0.5 mg/dL
  Ca: 11.1 mg/dL
  Cl: 103.8 meq/L
  DBIL: 0.006 mg/dL
  GLC: 178.2 mg/dL
  IP: 8.6 mg/dL
  K: 4.8 meq/L
  LDH: 88.6 IU/L
  Na: 142.4 meq/L
  PL: 157 mg/dL
  RALB: 3.9 g/dL
  TBIL: 0.3 mg/dL
  TC: 72.4 mg/dL
  TG: 111.4 mg/dL
  TP: 6 g/dL
  gamma-GTP: 1.2 IU/L
[4]
  TERMINAL_BW: 341 g
  APTT: 16.5 s
  Bas: 0%
  Eos: 1%
  Fbg: 222.6 mg/dL
  Hb: 14.6 g/dL
  Ht: 43.4%
  Lym: 89.4%
  MCH: 19 pg
  MCHC: 33.6%
  MCV: 56.6 fL
  Mono: 3%
  Neu: 7%
  PT: 11.8 s
  Plat: 94.9 x10_4/uL
  RBC: 766.8 x10_4/ul
  Ret: 2.7%
  WBC: 147 x10_2/uL
  KIDNEY_L: 1.3 g
  KIDNEY_R: 1.2 g
  KIDNEY_TOTAL: 2.5 g
  LIVER: 13.2 g
  A/G: 1.8
  ALP: 813.4 IU/L
  ALT: 29 IU/L
  AST: 62.4 IU/L
  BUN: 19.4 mg/dL
  CRE: 0.6 mg/dL
  Ca: 10.9 mg/dL
  Cl: 107 meq/L
  DBIL: 0.026 mg/dL
  GLC: 173.2 mg/dL
  IP: 7.4 mg/dL
  K: 4.2 meq/L
  LDH: 73.8 IU/L
  Na: 141 meq/L
  PL: 146 mg/dL
  RALB: 3.8 g/dL
  TBIL: 0.3 mg/dL
  TC: 75.2 mg/dL
  TG: 127 mg/dL
  TP: 6 g/dL
  gamma-GTP: 1 IU/L
[5]
  TERMINAL_BW: 196.1 g
  APTT: 16.3 s
  Bas: 0%
  Eos: 1.2%
  Fbg: 220.4 mg/dL
  Hb: 13.2 g/dL
  Ht: 39.6%
  Lym: 87.6%
  MCH: 21.2 pg
  MCHC: 33.2%
  MCV: 63.8 fL
  Mono: 4.6%
  Neu: 6.6%
  PT: 12.3 s
  Plat: 111.2 x10_4/uL
  RBC: 621.8 x10_4/ul
  Ret: 5.2%
  WBC: 98.6 x10_2/uL
  KIDNEY_L: 0.9 g
  KIDNEY_R: 0.9 g
  KIDNEY_TOTAL: 1.8 g
  LIVER: 8.4 g
  A/G: 2.2
  ALP: 1151 IU/L
  ALT: 37.8 IU/L
  AST: 72.2 IU/L
  BUN: 17.2 mg/dL
  CRE: 0.5 mg/dL
  Ca: 10.8 mg/dL
  Cl: 105.8 meq/L
  DBIL: 0.006 mg/dL
  GLC: 181 mg/dL
  IP: 9 mg/dL
  K: 4.6 meq/L
  LDH: 144.4 IU/L
  Na: 140.8 meq/L
  PL: 143.2 mg/dL
  RALB: 3.8 g/dL
  TBIL: 0.3 mg/dL
  TC: 85.8 mg/dL
  TG: 40.4 mg/dL
  TP: 5.5 g/dL
  gamma-GTP: 1.8 IU/L
[6]
  TERMINAL_BW: 225.1 g
  APTT: 16 s
  Bas: 0%
  Eos: 1.2%
  Fbg: 220.8 mg/dL
  Hb: 13.3 g/dL
  Ht: 39.5%
  Lym: 86.6%
  MCH: 20.8 pg
  MCHC: 33.6%
  MCV: 61.7 fL
  Mono: 5.8%
  Neu: 6.8%
  PT: 12.3 s
  Plat: 115 x10_4/uL
  RBC: 639.8 x10_4/ul
  Ret: 6.4%
  WBC: 124.1 x10_2/uL
  KIDNEY_L: 1 g
  KIDNEY_R: 1 g
  KIDNEY_TOTAL: 1.9 g
  LIVER: 9.5 g
  A/G: 2.1
  ALP: 1114.8 IU/L
  ALT: 36.6 IU/L
  AST: 72 IU/L
  BUN: 17 mg/dL
  CRE: 0.5 mg/dL
  Ca: 11.1 mg/dL
  Cl: 106.2 meq/L
  DBIL: 0.008 mg/dL
  GLC: 179.6 mg/dL
  IP: 9 mg/dL
  K: 5.2 meq/L
  LDH: 116.4 IU/L
  Na: 140.4 meq/L
  PL: 139 mg/dL
  RALB: 3.8 g/dL
  TBIL: 0.2 mg/dL
  TC: 74 mg/dL
  TG: 56.2 mg/dL
  TP: 5.6 g/dL
  gamma-GTP: 1.2 IU/L
[7]
  TERMINAL_BW: 289.3 g
  APTT: 16.2 s
  Bas: 0%
  Eos: 1%
  Fbg: 225.4 mg/dL
  Hb: 13.5 g/dL
  Ht: 40.9%
  Lym: 91.2%
  MCH: 20.6 pg
  MCHC: 33%
  MCV: 62.5 fL
  Mono: 2.6%
  Neu: 5.4%
  PT: 11.9 s
  Plat: 109.6 x10_4/uL
  RBC: 656 x10_4/ul
  Ret: 6.7%
  WBC: 146 x10_2/uL
  KIDNEY_L: 1.1 g
  KIDNEY_R: 1.2 g
  KIDNEY_TOTAL: 2.3 g
  LIVER: 11.9 g
  A/G: 2
  ALP: 1024 IU/L
  ALT: 33.8 IU/L
  AST: 64.8 IU/L
  BUN: 20.2 mg/dL
  CRE: 0.6 mg/dL
  Ca: 11.3 mg/dL
  Cl: 104 meq/L
  DBIL: 0.074 mg/dL
  GLC: 176 mg/dL
  IP: 9.2 mg/dL
  K: 4.9 meq/L
  LDH: 156.6 IU/L
  Na: 143 meq/L
  PL: 168.8 mg/dL
  RALB: 3.9 g/dL
  TBIL: 0.3 mg/dL
  TC: 89.2 mg/dL
  TG: 84.2 mg/dL
  TP: 5.9 g/dL
  gamma-GTP: 2 IU/L
[8]
  TERMINAL_BW: 356 g
  APTT: 16.6 s
  Bas: 0%
  Eos: 1%
  Fbg: 233.6 mg/dL
  Hb: 14.4 g/dL
  Ht: 43.2%
  Lym: 86.8%
  MCH: 19 pg
  MCHC: 33.4%
  MCV: 56.9 fL
  Mono: 3.6%
  Neu: 8.6%
  PT: 11.8 s
  Plat: 95 x10_4/uL
  RBC: 761.4 x10_4/ul
  Ret: 2.9%
  WBC: 154.2 x10_2/uL
  KIDNEY_L: 1.3 g
  KIDNEY_R: 1.2 g
  KIDNEY_TOTAL: 2.5 g
  LIVER: 12.2 g
  A/G: 1.8
  ALP: 773.6 IU/L
  ALT: 35.2 IU/L
  AST: 71.8 IU/L
  BUN: 19.2 mg/dL
  CRE: 0.6 mg/dL
  Ca: 11.1 mg/dL
  Cl: 106 meq/L
  DBIL: 0.024 mg/dL
  GLC: 168.8 mg/dL
  IP: 7.6 mg/dL
  K: 4.4 meq/L
  LDH: 143.6 IU/L
  Na: 142 meq/L
  PL: 140.4 mg/dL
  RALB: 3.6 g/dL
  TBIL: 0.3 mg/dL
  TC: 77.6 mg/dL
  TG: 73.8 mg/dL
  TP: 5.7 g/dL
  gamma-GTP: 1.6 IU/L
